The numbers were not newly measured in patent US20120121615A1, “ALANINYL MAYTANSINOL ANTIBODY CONJUGATES” (priority 2010, published 2012), which cites them from elsewhere.

For `COc1cc2cc(c1Cl)N(C)C(=O)C[C@H](OC(=O)[C@H](C)N(C)C(C)=O)[C@]1(C)O[C@H]1[C@H](C)[C@@H]1C[C@@](O)(NC(=O)O1)[C@H](OC)/C=C/C=C(\C)C2` [maytansine], the “dose-limiting toxicity (DLT)” value (2.0 mg/m^2 every 3 weeks, single dose or 3 consecutive days) was “gastrointestinal, consisting of nausea, vomiting, and diarrhea”. Moreover, for the setting “at doses that could be safely delivered”, the “activity in the clinic” value is given as “modest”.
